The values below come from US9724537B2, “Abnormal electrical conduction blocking apparatus using photodynamic therapy (PDT)” (Keio University, priority 2006, dated 2017).

The structures appear in SMILES notation.

Usually half-life stands for how long it takes for the measured level to halve.

Data set [1] can be described thus: Pharmacokinetics of talaporfin sodium, rat plasma. The following applies: intravenous. The data set is classed as in vivo. Here is the method: FIG. 45 is a graph showing changes in plasma concentrations after intravenous injection to rats at various doses (10, 5, 2, 1 mg/kg) and to humans at 1 mg/kg over time, using data in pharmacology studies and clinical studies with talaporfin sodium. In rats, the average of the mean plasma concentrations measured at 47 min, which was the average of the half-lives from 2 to 60 min after intravenous injection at a dose of 10 mg/kg, and at 5 min was used as true values, and concentration changes were calculated until 60 min. Furthermore, a straight line was drawn between the value at 60 min and the value at 120 min calculated using the average of the plasma concentrations measured at 9.6 h, which was the average of the half-lives from 2 to 24 h after intravenous injection, and at 24 h as a true value. Changes at each dose were calculated assuming that the plasma concentration changed in proportion to the dose.

For data set [2] the following is noted: human; intravenous injection 1 mg/kg; cited from earlier work.
For data set [3], the system named is cultured cardiac muscle cells derived from an SD rat. The data set can be described thus: PDT cell lethality vs photosensitizer concentration, loading time and total dose (CCK-8). The following applies: for cell lethality at 2 h after irradiation: loading 0 to 120 min, 5, 10, 15 J/cm^2. In kind it is cell-based. How it is done: Using cultured cardiac muscle cells derived from an SD rat, the relationship of the photosensitizer concentration, the photosensitizer loading time, and the cell lethality and the laser output required to induce cell death were examined
Cultured cardiac muscle cells derived from an SD rat were purchased from Cell Garage Co., Ltd. D-MEM/F12+10% FBS was used as a medium.
2.2 to 2.3×10^5 cells/ml of cardiac muscle cells in suspension were seeded on a collagen-coated 96-well plate at 0.1 ml/well (2.2 to 2.3×10^4 cells/well) and cultured in an incubator (37° C., CO2 concentration 5%) for six to seven days.
At this time, talaporfin sodium as a photosensitizer was dissolved in a medium at 5, 15, or 30 μg/ml. Cardiac muscle cells were loaded with talaporfin sodium for 0, 30, 60, or 120 min and irradiated with a laser beam. Laser irradiation was performed using a continuous semiconductor laser beam (peak wavelength, 670.8 nm; power density, 150 mW/cm^2) on a 0.5-cm^2 irradiation field (=area of a well) at 5, 10, and 15 J/cm^2.
After laser irradiation, 0.01 ml of Cell Counting Kit-8 (Dojindo Laboratories, hereinafter referred to as CCK-8) was added to the medium in each well, the plate was incubated for 2 h, and the absorbance at 450 nm was measured to calculate the cell lethality. The cell lethality was calculated based on the absorbance without performing laser irradiation as 100%.

Data set [4] deals with rat cardiac muscle cells in primary culture. The data set can be described thus: PDT cell lethality (CCK-8) in cardiac muscle cells in primary culture. In kind it is cell-based. Here is the method:
The relationship between the photosensitizer concentration and the cell lethality and the laser output required to induce a cell death were investigated using rat cardiac muscle cells in primary culture.
Cardiac muscle cells in primary culture were purchased from Cell Garage Co., Ltd. as an extract from the rat ventricular muscle. As a medium, D-MEM/F12+10% FBS was used.
Cardiac muscle cells in primary culture were purchased in suspension and seeded on a 96-well microplate. Cells were cultured at 37° C. under 5% CO2, and cells on days 3 and 7 of culture were used. The cardiac muscle cells in primary culture were pulsatile, and pulsations among cells were synchronizing.
Cardiac muscle cells in primary culture were adjusted to a density of 2.0×10^4 cells/well. As a photosensitizer talaporfin sodium was dissolved in a medium at various concentrations and added at a concentration of 0.1 ml/well. After 1 to 2 h of loading, laser irradiation was performed, and the medium was replaced after the completion of irradiation.
At this time, a 0.5-cm^2 irradiation field (=area of well) was irradiated with a continuous semiconductor laser beam (peak wavelength, 670.8 nm) under various conditions.
After laser irradiation, 0.01 ml of Cell Counting Kit-8 (Dojindo Laboratories, hereinafter referred to as CCK-8) was added to the medium in each well, the plate was incubated for 2 h, and the absorbance was measured to calculate the cell lethality. Six samples were examined
The experimental conditions were as follows.
(i) Cells on day 3 of culture
Used cells: cells on day 3 of culture
Agent concentrations: 5, 10, 15 μg/ml
Laser intensity: 150 mW/cm^2
Total energy density: 1, 2, 3, 5 J/cm^2
(ii) Cells on day 7 of culture
Used cells: cells on day 7 of culture
Agent concentrations: 20, 25, 30 μg/ml
Total energy density: 3 J/cm^2

A further data set can be described thus: in vivo. The following applies: rat, half-life of photosensitizer concentration in the heart. How it is done:
FIG. 46 is a graph showing changes in the photosensitizer concentration in the rat heart at doses of 5 and 2 mg/kg together with changes in plasma concentration in rats and humans.

Turning to `C=Cc1c(C)c2cc3nc(c(CC(=O)N[C@@H](CC(=O)O)C(=O)O)c4[nH]c(cc5nc(cc1[nH]2)C(C)=C5CC)c(C)c4C(=O)O)[C@@H](CCC(=O)O)[C@@H]3C` [talaporfin sodium, mono-L-aspartyl chlorine 6], the concentration at 30 min in data set [1] (conditions of Experiment 3 (2 mg/kg, interval 30 min)) is 24000 ng/mL. The molecule also displayed a concentration at 60 min in data set [1] (conditions of Experiment 4 (2 mg/kg, interval 60 min)) of 16000 ng/mL. Moreover, in data set [2], the “early average half-life in plasma” value was 14.6 h. Further, in data set [2], the “plasma concentration at 10 min” value was 27000 ng/mL. Besides, the “cell lethality at 2 h after irradiation” value in data set [3] (15 μg/ml or lower) is reported as “no marked effect was observed”; in data set [3] (30 μg/ml), “the cell lethality markedly increased after laser beam irradiation”. In addition, the “cell morphology immediately after laser beam irradiation” value in data set [3] (30 μg/ml, 15 J/cm^2, loading 30 min) was “marked changes in cell morphology, such as exfoliation and shrinkage of cells, were observed”. For the same molecule, in data set [3] (loading 0, 30, 60, 120 min, FIG. 19), the “cell lethality vs loading time” value is “loading for 30 min was most effective”. In addition, the “cell lethality at 5 J/cm^2 vs 3 J/cm^2” value in data set [4] (cells on day 3 of culture, 15 μg/ml) is on record as “the cell lethality decreased at the total energy density of laser irradiation of 5 J/cm^2 as compared with that at 3 J/cm^2”. For the same molecule, in data set [4] (cells on day 3 of culture, high talaporfin sodium concentration, 1, 2, 3, 5 J/cm^2, FIG. 10), the “cell lethality vs total energy density” value is listed as “the greater the total energy density of laser irradiation was, the higher cell lethality was”. Besides, the “cell lethality, day 7 vs day 3 cells” value in data set [4] (cells on day 7 of culture, 20, 25, 30 μg/ml, 3 J/cm^2, FIG. 11) is given as “the cell lethality was higher than when cells on day 3 of culture were used”. Also, the half-life in “in vivo” (0 to 60 min) is 1.08 h; in “in vivo” (later phase), 13.3 h.
